Entries after “also recorded” stand apart in the source; their conditions may differ.

Common to all, as to type: cell-based, Human
The test system of experiment [1] is ZR75, ZR75PELP1, MCF7 and MCF7PELP1 cells. In words: MTT proliferation assay, breast cancer cells with and without PELP1 overexpression. The settings on record: 10 μM every 3 days, day 7, FIG. 4A. As to the method:
FIGS. 4A-E. (FIG. 4A) ZR75vec, ZR75PELP1, MCF7vec and MCF7PELP1 cells were treated in triplicate with TAT, PIP1 or PIP1 deletions (Del1, Del2, Del3) at 10 uM every 3 days and proliferation was measured by MTT assay on day 7. (FIG. 4B) ZRPELP1 cells were transfected with ERE-luciferase and treated with TAT, PIP1, or PIP2 for 24 hours and with estradiol for 12 hours. Relative luciferase activity was measured in triplicate. (FIG. 4C) ZR75 cells were grown in 5% DCC media for 72 hours, treated with TAT or PIP1 every 3 days, and treated with estradiol 10^−7 M for 12 hours. Proliferation was measured in triplicate on day 7 by MTT assay at 595 nm. (FIG. 4D) MCF7-Letrozole resistant cells were grown in 5% DCC media for 72 hours, treated with TAT, PIP1 or PIP2 every 3 days, and letrozole or estradiol 10^−7 M for 12 hours. Proliferation was measured in triplicate on day 7 by MTT assay at 595 nm. […] Proliferation was measured in triplicate on day 7 by MTT assay at 595 nm.
Cell proliferation rates were measured by using MTT Cell Viability Assay in 96-well plates. […] After an overnight incubation, cells were treated with varying concentrations of the peptides for 3-7 days and growth inhibition was determined by using traditional MTT assay (Sigma) following manufacturer's instructions.
(In general: Tetrazolium dyes change colour on reduction, which living cells bring about.)

The test system of experiment [2] is MCF7-TamR and MCF7-LTLT cells. As to the kind of experiment: Therapy resistance assays, MTT. The settings on record: FIGS. 4D-E, 11. As for the experimental part: FIGS. 4A-E. (FIG. 4A) ZR75vec, ZR75PELP1, MCF7vec and MCF7PELP1 cells were treated in triplicate with TAT, PIP1 or PIP1 deletions (Del1, Del2, Del3) at 10 uM every 3 days and proliferation was measured by MTT assay on day 7. (FIG. 4B) ZRPELP1 cells were transfected with ERE-luciferase and treated with TAT, PIP1, or PIP2 for 24 hours and with estradiol for 12 hours. Relative luciferase activity was measured in triplicate. (FIG. 4C) ZR75 cells were grown in 5% DCC media for 72 hours, treated with TAT or PIP1 every 3 days, and treated with estradiol 10^−7 M for 12 hours. Proliferation was measured in triplicate on day 7 by MTT assay at 595 nm. (FIG. 4D) MCF7-Letrozole resistant cells were grown in 5% DCC media for 72 hours, treated with TAT, PIP1 or PIP2 every 3 days, and letrozole or estradiol 10^−7 M for 12 hours. Proliferation was measured in triplicate on day 7 by MTT assay at 595 nm. (FIG. 4E) MCF7-Tamoxiefn resistant cells were grown in 5% DCC media for 72 hours, treated with TAT, PIP1 or PIP2 every 3 days, and tamoxifen or estradiol 10^−7 M for 12 hours. Proliferation was measured in triplicate on day 7 by MTT assay at 595 nm.
FIG. 11. Cell proliferation assay: letrozole-resistant MCF-7-LTLT cells and Tamoxifen resistant MCF7-Tam cells were treated with TAT, PIP1, or PIP2 (10 μM)+/− letrozole or Tamoxifen.
Tamoxifen (Tam) therapy resistant MCF7-TamR and letrozole resistant MCF7-LTLT cells were cultured in tamoxifen or letrozole (10^-7M) containing media in the presence or absence of peptides and proliferation was measured by MTT assay (Sigma) following manufacturer's instructions.

In experiment [3] the test system is ZRPELP1 and MCF7-PELP1 cells. In words: Mammosphere formation assay. The settings on record: 10 μM and 20 μM, FIG. 12. As to the method: FIG. 12. Effect of PIP1 on mammosphere formation. Single-cell suspensions of ZR75-PELP1 were plated in triplicate wells at a density of 10,000 cells per ml in mammosphere medium in non-adherent plates. Cultures were treated with indicated concentration of PIP1 and mammospheres were counted after 7 days. ZR75PELP1 and MCF7PELP1 cells were FACS sorted for CD44-APC^high (Milteny Biotec) and CD24-PE^low (Milteny Biotec) cell surface markers. A single cell suspension of model cells ZR75-PELP1 were seeded in mammosphere media in a low adherent 96-well plate with TAT or PIP (10, 20 or 50 μM). Media containing peptide was added on day 4 and mammospheres were counted and imaged on day 8 (Shaw et al., 2012).

The next experiment concerns ZR75 cells. As to the kind of experiment: TUNEL assay. Particulars: 10 μM, 24 hours, FIG. 5D. As to the method: FIGS. 5A-D. (FIG. 5A) ZR75vec, ZR75PELP1, MCF7vec and MCF7PELP1 cells were plated in the top of a Boyden chamber transwell, treated with TAT, PIP1 or PIP2 (10 μM) and absorbance was measured at 12 hours in triplicate. (FIG. 5B) MCF7vec, MCFP7ELP1, ZR75vec and ZR75PELP1 cells were treated in triplicate with TAT, PIP1 or PIP2 (10 μM) every 3 days, fixed with methanol on day 10 and stained with crystal violet. Average colonies per well are shown. (FIG. 5C) ZR75vec and ZR75PELP1 cells were plated in triplicate in agar with 8% RPMI with TAT, PIP1 or PIP2 (10 μM). Colonies were counted on day 14, representative images are shown on right. (FIG. 5D) ZR75 cells were plated on coverslips in triplicate and treated with TAT or PIP1 (10 μM) for 24 hours. Cells were fixed with paraformaldehyde and labeled with TUNEL and DAPI, representative images are shown on right.
ZR75 and ZR75PELP1 cells were plated on coverslips in 8% RPMI and treated with peptide for 24 hours. Cells were labeled with in situ Cell Death Detection Kit (Roche) according to manufacturer's protocol, imaged by fluorescent microscopy and quantified.

The subject of experiment [4] is G9a target genes Pecam1, Serac1, Rb1 and Bmi1 in ZR75 cells. As to the kind of experiment: qRTPCR of G9a target genes. Particulars: 10 μM, FIG. 3B. As to the method: FIGS. 3A-F. (FIG. 3A) Recombinant histones were incubated with G9a with increasing concentrations of PELP1, incubated 1 hour at 30° C. and western blot analysis was performed for expression of H3K9me2. Total histone H3 is shown as the control. (FIG. 3B) qRTPCR analysis of ZR75 and ZRPELP1KD cells treated with 10 μM TAT or PIP1 for 24 hours. G9a target genes PECAM1, SERAC1, RB1 and BMI1 expression is shown as—fold change over actin. (FIG. […]) ChIP-sequencing location analysis of H3K9me2 in control ZR75 model cells. (FIG. 3D) ChIP-sequencing location analysis of H3K9me2 in stable ZR75PELP1KD cells. (FIG. 3E) Ingenuity pathway analysis of genes from binding peaks of ChIP-sequencing of H3K9me2 in stable PELP1 ZR75PELP1KD cells. (FIG. 3F) Image from Integrated Genome Viewer of ChIP-sequencing of H3K9me2 in ZR75 and ZRPELP1KD cells.
Model cells ZR75 and ZRPELP1KD were grown in 8% DCC media for 72 hours and treated with TAT or PIP1 (10 μM) for […]. RNA was isolated by Trizol and cDNA was synthesized by Superscript III First Strand reverse transcriptase (Invitrogen). qPCR was performed in triplicate by SyberGreen using an Illumina Eco Real-Time PCR System. Gene expression was normalized to actin.
Background: Real-time PCR tracks product formation cycle by cycle.

On to GRKKRRQRRRGGMVEFRWSCPGRRKAKA [PIP1], for which, in experiment [1], the “proliferation by MTT assay” value is on record as “significant decrease”. Besides, the “proliferation of therapy resistant cell lines” value in experiment [2] (MCF7-TamR and MCF7-LTLT, 10 μM) is given as “inhibited the proliferation; also recorded: efficiently reduce the growth of therapy resistant cells”. Moreover, the “combined effect on proliferation with hormonal therapy (tamoxifen, letrozole)” value in experiment [2] (therapy resistant cells) was “synergistic inhibition of proliferation with tamoxifen”. Further, in experiment [3], the number of mammospheres entry is reported as “significant decrease in the number of mammospheres” and the “size of the mammospheres” value is listed as “substantially decreased”. For the same sequence, the “apoptosis by TUNEL assay” value with ZR75 cells is “induces apoptosis”. In addition, in experiment [4], the “expression of G9a target genes Pecam1, Serac1, Rb1 and Bmi1” value is on record as “decrease in the expression G9a upregulated target genes”.

(Values after patent US10682388B2, “Targeting of PELP1 in cancer therapy” (THE BOARD OF REGENTS OF THE UNIVERSITY OF TEXAS SYSTEM, priority 2014, dated 2020).)
